Calls of active or inactive are those of the source. The rule behind the calls is not given here. Where a SMILES comes first, the peptide text is derived from it. [ ]: non-standard residue; d: D form. ξ: configuration not given here. Trp(1-OMe) = COn1cc(C[C@H](N)C(=O)O)c2ccccc21; Asu = N[C@@H](CCCCCC(=O)O)C(=O)O; Ile(3ξ) = CCC(C)[C@H](N)C(=O)O; dPip = O=C(O)[C@H]1CCCCN1
System: CCRIS mutagenicity, Ames/micronucleus/aberration tests
Test: CCRIS mutagenicity studies
[1] = Test System: AMES SALMONELLA TYPHIMURIUM, Strain/Indicator: TA98, Metabolic Activation: NONE, Method: PREINCUBATION
[2] = Test System: AMES SALMONELLA TYPHIMURIUM, Strain/Indicator: TA100, Metabolic Activation: NONE, Method: PREINCUBATION
[3] = Test System: AMES SALMONELLA TYPHIMURIUM, Strain/Indicator: TA1535, Metabolic Activation: NONE, Method: PREINCUBATION
[4] = Test System: AMES SALMONELLA TYPHIMURIUM, Strain/Indicator: TA100, Metabolic Activation: NONE, Method: STANDARD PLATE

Cc1ccc(N(C)C)cc1
mutagenic call (Test System: AMES SALMONELLA TYPHIMURIUM, Strain/Indicator: TA97, Metabolic Activation: HAMSTER, LIVER, S-9, AROCLOR 1254 (10 OR 30%), Method: PREINCUBATION): inactive; negative
mutagenic call (Test System: AMES SALMONELLA TYPHIMURIUM, Strain/Indicator: TA97, Metabolic Activation: NONE, Method: PREINCUBATION): inactive; negative
mutagenic call (Test System: AMES SALMONELLA TYPHIMURIUM, Strain/Indicator: TA97, Metabolic Activation: RAT, LIVER, S-9, AROCLOR 1254 (10 OR 30%), Method: PREINCUBATION): inactive; negative
mutagenic call (Test System: AMES SALMONELLA TYPHIMURIUM, Strain/Indicator: TA98, Metabolic Activation: HAMSTER, LIVER, S-9, AROCLOR 1254 (10 OR 30%), Method: PREINCUBATION): inactive; negative
mutagenic call [1]: inactive; negative
mutagenic call (Test System: AMES SALMONELLA TYPHIMURIUM, Strain/Indicator: TA98, Metabolic Activation: RAT, LIVER, S-9, AROCLOR 1254 (10 OR 30%), Method: PREINCUBATION): inactive; negative
mutagenic call (Test System: AMES SALMONELLA TYPHIMURIUM, Strain/Indicator: TA100, Metabolic Activation: HAMSTER, LIVER, S-9, AROCLOR 1254 (10 OR 30%), Method: PREINCUBATION): inactive; negative
mutagenic call [2]: inactive; negative
mutagenic call (Test System: AMES SALMONELLA TYPHIMURIUM, Strain/Indicator: TA100, Metabolic Activation: RAT, LIVER, S-9, AROCLOR 1254 (10 OR 30%), Method: PREINCUBATION): inactive; negative
mutagenic call (Test System: AMES SALMONELLA TYPHIMURIUM, Strain/Indicator: TA1535, Metabolic Activation: RAT, LIVER, S-9, AROCLOR 1254 (5%), Method: STANDARD PLATE): active; positive
mutagenic call (Test System: AMES SALMONELLA TYPHIMURIUM, Strain/Indicator: TA1535, Metabolic Activation: RAT, LIVER, S-9, AROCLOR 1254 (5,10%), Method: PREINCUBATION): active; positive
mutagenic call (Test System: MOUSE LYMPHOMA, Strain/Indicator: L5178Y (TK+/TK-), Metabolic Activation: NONE, Method: SUSPENSION/PLATE): active; positive. reevaluation of results: equivocal
mutagenic call (Test System: MOUSE LYMPHOMA, Strain/Indicator: L5178Y (TK+/TK-), Metabolic Activation: RAT, LIVER, S-9, AROCLOR 1254, Method: SUSPENSION/PLATE): active; positive. reevaluation of results: positive

CCN(CO)N=O
mutagenic call (Test System: CHINESE HAMSTER V-79, Strain/Indicator: V-79/OUABAIN, Metabolic Activation: NONE): active; positive

CN(C)c1ccc(/C=C/c2ccccc2)cc1
mutagenic call (Test System: AMES SALMONELLA TYPHIMURIUM, Strain/Indicator: TA98, Metabolic Activation: HAMSTER, LIVER, S-9, AROCLOR 1254, Method: STANDARD PLATE): active; positive
mutagenic call (Test System: AMES SALMONELLA TYPHIMURIUM, Strain/Indicator: TA98, Metabolic Activation: HAMSTER, LIVER, S-9, Method: PREINCUBATION (PRIVAL METHOD)): active; positive
mutagenic call (Test System: AMES SALMONELLA TYPHIMURIUM, Strain/Indicator: TA98, Metabolic Activation: RAT, LIVER, S-9, AROCLOR 1254, HAMSTER, LIVER, S-9, AROCLOR 1254, Method: STANDARD PLATE): active; positive
mutagenic call (Test System: AMES SALMONELLA TYPHIMURIUM, Strain/Indicator: TA98, Metabolic Activation: RAT, LIVER, S-9, KC500 OR PHENOBARBITAL, Method: LIQUID SUSPENSION): active; positive
mutagenic call (Test System: AMES SALMONELLA TYPHIMURIUM, Strain/Indicator: TA100, Metabolic Activation: HAMSTER, LIVER, S-9, AROCLOR 1254 (10%), Method: STANDARD PLATE): active; positive
mutagenic call (Test System: AMES SALMONELLA TYPHIMURIUM, Strain/Indicator: TA100, Metabolic Activation: HAMSTER, LIVER, S-9, Method: PREINCUBATION (PRIVAL METHOD)): active; positive
mutagenic call (Test System: AMES SALMONELLA TYPHIMURIUM, Strain/Indicator: TA100, Metabolic Activation: RAT, LIVER, S-9, AROCLOR 1254, HAMSTER, LIVER, S-9, AROCLOR 1254, Method: STANDARD PLATE): active; positive
mutagenic call (Test System: AMES SALMONELLA TYPHIMURIUM, Strain/Indicator: TA100, Metabolic Activation: RAT, LIVER, S-9, KC500 OR PHENOBARBITAL, Method: LIQUID SUSPENSION): active; positive
mutagenic call (Test System: AMES SALMONELLA TYPHIMURIUM, Strain/Indicator: TA100, Metabolic Activation: RAT, LIVER, S-9, PHENOBARBITAL, Method: STANDARD PLATE): active; positive
mutagenic call (Test System: AMES SALMONELLA TYPHIMURIUM, Strain/Indicator: TA1538, Metabolic Activation: RAT, LIVER, S-9, AROCLOR 1254, HAMSTER, LIVER, S-9, AROCLOR 1254, Method: STANDARD PLATE): active; positive
mutagenic call (Test System: AMES SALMONELLA TYPHIMURIUM, Strain/Indicator: TA1538, Metabolic Activation: RAT, LIVER, S-9, PHENOBARBITAL, Method: STANDARD PLATE): active; positive
mutagenic call (Test System: Mouse lymphoma, Strain/Indicator: L5178Y (tk+/tk-), Metabolic Activation: None, Method: Suspension/plate): inactive; inconclusive (pevious evaluation negative)
mutagenic call (Test System: Mouse lymphoma, Strain/Indicator: L5178Y (tk+/tk-), Metabolic Activation: Rat, Liver, S-9, Aroclor 1254, Method: Suspension/plate): active; positive

CCC(C)[C@@H]1NC(=O)[C@H](Cc2cn(OC)c3ccccc23)NC(=O)[C@H](CCCCCC(=O)OC)NC(=O)[C@H]2CCCCN2C1=O (some centres not stated) (cyclo([Asu](OMe)[Trp(1-OMe)][Ile(3ξ)][dPip]))
mutagenic call (End Point: IN VITRO CHROMOSOMAL ABERRATIONS, Test System: CHO CELLS, Metabolic Activation: NONE): active; positive (structural changes)
mutagenic call (End Point: IN VITRO CHROMOSOMAL ABERRATIONS, Test System: CHO CELLS, Metabolic Activation: RAT, LIVER, S-9, AROCLOR 1254): active; positive (structural changes)
mutagenic call (End Point: IN VIVO MICRONUCLEUS, Test System: BONE MARROW POLYCHROMATIC ERYTHROCYTES, Species: MOUSE, Strain/Sex: ICR/MALE, Route: IP INJECTION): active; positive
mutagenic call [1]: inactive; negative
mutagenic call (Test System: AMES SALMONELLA TYPHIMURIUM, Strain/Indicator: TA98, Metabolic Activation: RAT, LIVER, S-9, AROCLOR 1254, Method: PREINCUBATION): inactive; negative
mutagenic call [2]: inactive; negative
mutagenic call (Test System: AMES SALMONELLA TYPHIMURIUM, Strain/Indicator: TA100, Metabolic Activation: RAT, LIVER, S-9, AROCLOR 1254, Method: PREINCUBATION): inactive; negative
mutagenic call (Test System: AMES SALMONELLA TYPHIMURIUM, Strain/Indicator: TA102, Metabolic Activation: NONE, Method: PREINCUBATION): inactive; negative
mutagenic call (Test System: AMES SALMONELLA TYPHIMURIUM, Strain/Indicator: TA102, Metabolic Activation: RAT, LIVER, S-9, AROCLOR 1254, Method: PREINCUBATION): inactive; negative
mutagenic call [3]: inactive; negative
mutagenic call (Test System: AMES SALMONELLA TYPHIMURIUM, Strain/Indicator: TA1535, Metabolic Activation: RAT, LIVER, S-9, AROCLOR 1254, Method: PREINCUBATION): inactive; negative
mutagenic call (Test System: AMES SALMONELLA TYPHIMURIUM, Strain/Indicator: TA1537, Metabolic Activation: NONE, Method: PREINCUBATION): inactive; negative
mutagenic call (Test System: AMES SALMONELLA TYPHIMURIUM, Strain/Indicator: TA1537, Metabolic Activation: RAT, LIVER, S-9, AROCLOR 1254, Method: PREINCUBATION): inactive; negative

N#Cc1ccc(C(=O)ON(OCc2ccccc2)C(=O)c2ccccc2)cc1
mutagenic call [4]: active; positive
mutagenic call (Test System: AMES SALMONELLA TYPHIMURIUM, Strain/Indicator: TA100, Metabolic Activation: RAT, S-9, AROCLOR, Method: STANDARD PLATE): active; positive

ClC(Cl)(Cl)C1CO1 (configuration not stated)
mutagenic call (Test System: AMES SALMONELLA TYPHIMURIUM, Strain/Indicator: TA100, Metabolic Activation: HAMSTER, LIVER, S-9, AROCLOR 1254 (10%), Method: PREINCUBATION): active; positive
mutagenic call [2]: active; positive
mutagenic call [4]: active; positive
mutagenic call (Test System: AMES SALMONELLA TYPHIMURIUM, Strain/Indicator: TA100, Metabolic Activation: RAT, LIVER, S-9, AROCLOR 1254 (10%), Method: PREINCUBATION): active; positive
mutagenic call (Test System: AMES SALMONELLA TYPHIMURIUM, Strain/Indicator: TA104, Metabolic Activation: NONE, Method: STANDARD PLATE): active; positive
mutagenic call (Test System: AMES SALMONELLA TYPHIMURIUM, Strain/Indicator: TA1535, Metabolic Activation: HAMSTER, LIVER, S-9, AROCLOR 1254 (10%), Method: PREINCUBATION): inactive; negative
mutagenic call [3]: active; positive
mutagenic call (Test System: AMES SALMONELLA TYPHIMURIUM, Strain/Indicator: TA1535, Metabolic Activation: RAT, LIVER, S-9, AROCLOR 1254 (10%), Method: PREINCUBATION): inactive; negative
mutagenic call (Test System: AMES SALMONELLA TYPHIMURIUM, Strain/Indicator: TA4001, Metabolic Activation: NONE, Method: STANDARD PLATE): active; positive
mutagenic call (Test System: AMES SALMONELLA TYPHIMURIUM, Strain/Indicator: TA4006, Metabolic Activation: NONE, Method: STANDARD PLATE): active; positive

From PubChem BioAssay AID1259407 (Chemical Carcinogenesis Research Information System (CCRIS), 2018)
